Where “and” joins values, the source holds several entries; their conditions need not be identical. Equal entries are not always repeated.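 Cultured in 96-well plates, cells were exposed to test compound for 48 hours across five concentrations. At the GI50, growth is halved. TGI denotes the concentration required for complete inhibition of growth.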
The compounds below were run on HL-60(TB) leukemia (assay: inhibition of tumour cell growth, NCI panel, 48 h).

Q: With `CCOC(=O)COc1cccc2c1C(=O)CCO2` as the compound, how does the TGI read?
A: > 100 µM

Q: For `O[C@H]1[C@H]2c3cc4c(cc3CN3CCC(=C[C@@H]1O)[C@H]23)OCO4`, which TGI is on record?
A: 6.37 µM

Q: How did the TGI turn out when `COC(=O)[C@@]12C3=NO[C@]1(C(=O)OC)C(O[Si](C)(C)C(C)(C)C)[C@H]1OC(C)(C)O[C@H]1[C@@H]2C(OCc1ccccc1)CC3` (stereo partly drawn) was run?
A: > 100 µM

Q: For `CNC(=O)c1ccccc1Nc1nc(Nc2ccc(N3CCOCC3)cc2OC)ncc1Cl`, which GI50 is on record?
A: 0.206 µM

Q: What about the TGI of the same compound?
A: > 57.1 µM

Q: With `O=C(N/C(=C\c1cc(Cl)ccc1Cl)c1nc2[nH]c(=S)[nH]c(=O)c2[nH]1)c1ccccc1` as the compound, how does the TGI read?
A: 36.3 µM

Q: `CN(CC(=O)O)S(=O)(=O)c1ccc2ccccc2c1` was tested. Which TGI did it give?
A: > 100 µM

Q: With `O=[S@@]1Nc2ccc(Br)cc2S1` as the compound, how does the TGI read?
A: 65.2 µM

Q: `COc1ccc2c(c1)C1(C=N2)CCN(C(C)=O)CC1` was tested. Which TGI did it give?
A: > 100 µM

Q: For `O=C1NC2(CCCCC2)C2CCCCC(O)C12` (stereo not drawn), which TGI is on record?
A: > 100 µM

Q: `CCOC(=O)C1=C(C)CC2C(=O)OC(=O)C2C1(C)C` (stereo not drawn) was tested. Which TGI did it give?
A: > 100 µM

Q: `CC1=C(C(=O)Nc2ccc(F)c(Cl)c2)C(c2ccc(Cl)cc2)NC(=O)N1` (stereo not drawn) was tested. Which GI50 did it give?
A: 0.083 µM

Q: And the TGI?
A: 1.87 µM

Q: For `Oc1ccc(Cl)cc1-c1cc(-c2ccccc2Cl)[nH]n1`, which GI50 is on record?
A: 4.22 µM

Q: And the TGI?
A: > 100 µM

Q: With `CNC(=O)c1cc(Oc2ccc3nc(NC(=O)Nc4ccc(Cl)c(C(F)(F)F)c4)sc3c2)ccn1` as the compound, how does the GI50 read?
A: > 100 µM

Q: What about the TGI of the same compound?
A: > 100 µM

Q: `O=C(O)C(Cc1ccccc1)N1C(=O)N/C(=C\c2ccc(F)cc2)C1=O` (stereo not drawn) was tested. Which TGI did it give?
A: > 100 µM

Q: Which TGI does the source give for `C/C(CCn1[nH]c(=O)ccc1=O)=N\O` here?
A: > 100 µM

Q: Which TGI does the source give for `COc1ccccc1NC(=O)CC(=O)n1nc(C)c(N=Nc2ccccc2C(=O)O)c1C` here?
A: > 100 µM

Q: With `CC(=O)N1[C@H](C(=O)O)CS[C@H]1c1ccncc1` as the compound, how does the TGI read?
A: > 100 µM

Q: With `COc1ccc(C2=CSc3cc(Cl)c(C)cc3S(=O)(=O)N2C(C)=O)cc1` as the compound, how does the GI50 read?
A: 17.2 µM

Q: And the TGI?
A: 43.7 µM

Q: Which results are given for `CC(=O)[O][Hg][c]1c(N)c(C)cc(C)c1F`?
A: GI50: 1.44 µM; TGI: 5.17 µM

Q: How did the TGI turn out when `O=C(O)CCSC(=O)Nc1cccc(F)c1` was run?
A: > 100 µM

Q: How did the TGI turn out when `c1cc2c(cc1NC1=NCCO1)CCC2` was run?
A: > 10 µM

The compounds below were run on KM12 colon (assay: inhibition of tumour cell growth, NCI panel, 48 h).

Q: What does the source list for `NC(CSC(c1ccccc1)(c1ccccc1)c1ccc2c(c1)OCO2)C(=O)O` (stereo not drawn)?
A: GI50: 0.605 µM; TGI: > 100 µM

Q: `C=CCc1cc(OC)c2c(c1)C(O)CC(c1ccc(OC)c(OC)c1)O2` (stereo not drawn) was tested. Which TGI did it give?
A: > 100 µM

Q: How did the GI50 turn out when `O=C(NCCNc1nccc(-c2c(-c3cccc(O)c3)nc3sccn23)n1)c1ccccc1O` was run?
A: 4.41 µM

Q: And the TGI?
A: 15.7 µM

Q: Which results are given for `CCCCCCCC(=O)SCC/C=C/[C@@H]1CC(=O)NCc2cccc(n2)C2=N[C@@](C)(CS2)C(=O)N[C@@H](C(C)C)C(=O)N1`?
A: GI50: 1.21 µM; TGI: > 33.3 µM

Q: With `C[C@@H](CS(C)(=O)=O)Nc1ncc2cc(Oc3ccc(F)cc3F)c(=O)n(C)c2n1` as the compound, how does the GI50 read?
A: > 25 µM

Q: What about the TGI of the same compound?
A: > 25 µM

Q: With `CC(C)=CCCc1c(C)ccc2c1C(=O)C(=O)C(C(C)C)=C2` as the compound, how does the TGI read?
A: > 22 µM

Q: Which results are given for `COc1cc2c(c(OC)c1O)C(=O)C(OC)C(c1ccc(O)c(O)c1)O2` (stereo not drawn)?
A: GI50: 0.515 µM; TGI: > 100 µM

Q: What does the source list for `Cn1ccnc1C(=O)/C=C/c1ccc(CC(=O)Nc2ccc(Br)cc2)cc1`?
A: GI50: 2.66 µM; TGI: 5.51 µM

Q: With `COC(=O)[C@@H](C)C[C@H](Cc1ccc(F)cc1)NC(=O)c1csc([C@@H](C[C@H](C(C)C)N(C)C(=O)[C@@H](NC(=O)[C@H]2CCCCN2C)C(C)C)OC(C)=O)n1` as the compound, how does the GI50 read?
A: 0.000953 µM and 0.00636 µM

Q: What about the TGI of the same compound?
A: > 16.7 µM

Q: For `N#CC(C#N)=c1ccc(=C2NCC3CCCN23)cc1` (stereo not drawn), which TGI is on record?
A: > 100 µM

Q: Which TGI does the source give for `CCOC(=O)COc1cccc2c1C(=O)CCO2` here?
A: > 100 µM

Q: `Nc1ccc(C(=O)N/C(=C\c2ccc3c(c2)OCO3)c2nc3[nH]c(=S)[nH]c(=O)c3[nH]2)cc1` was tested. Which TGI did it give?
A: > 100 µM

Q: `O[C@H]1[C@H]2c3cc4c(cc3CN3CCC(=C[C@@H]1O)[C@H]23)OCO4` was tested. Which TGI did it give?
A: 22.4 µM

Q: For `COC(=O)[C@@]12C3=NO[C@]1(C(=O)OC)C(O[Si](C)(C)C(C)(C)C)[C@H]1OC(C)(C)O[C@H]1[C@@H]2C(OCc1ccccc1)CC3` (stereo partly drawn), which TGI is on record?
A: > 100 µM

Q: With `CNC(=O)c1ccccc1Nc1nc(Nc2ccc(N3CCOCC3)cc2OC)ncc1Cl` as the compound, how does the GI50 read?
A: 0.298 µM

Q: What about the TGI of the same compound?
A: 8.52 µM

Q: With `O=C(N/C(=C\c1cc(Cl)ccc1Cl)c1nc2[nH]c(=S)[nH]c(=O)c2[nH]1)c1ccccc1` as the compound, how does the TGI read?
A: 73.6 µM

Q: For `CN(CC(=O)O)S(=O)(=O)c1ccc2ccccc2c1`, which TGI is on record?
A: > 100 µM

Q: With `O=[S@@]1Nc2ccc(Br)cc2S1` as the compound, how does the TGI read?
A: > 100 µM
